From patent US20090111824A1, “AMIDE LINKED HETEROAROMATIC DERIVATIVES AS MODULATORS OF MGLUR5” (AstraZeneca AB, priority 2007, published 2009)

What was measured:
[1] = molecular target: T1, human mGluR5d (Homo sapiens, UniProt P41594); assay: FLIPR assay, functional assessment of mGluR5 antagonism (intracellular calcium mobilization); format: cell-based; conditions: cells expressing human mGluR5d; read-out: FLIPR hmGluR5d
T1 construct: expressed in transfected cells; The cells are kept under Hygromycin B and Zeocin selection; The separate IP3 assay names GHEK cells
Description: Functional Assessment of mGluR5 Antagonism in Cell Lines Expressing mGluR5D
The properties of the compounds of the invention can be analyzed using standard assays for pharmacological activity. Examples of glutamate receptor assays are well known in the art as described in for example Aramori et al., Neuron 8:757 (1992), Tanabe et al., Neuron 8:169 (1992), Miller et al., J. Neuroscience 15: 6103 (1995), Balazs, et al., J. Neurochemistry 69:151 (1997). The methodology described in these publications is incorporated herein by reference. Conveniently, the compounds of the invention can be studied by means of an assay (FLIPR) that measures the mobilization of intracellular calcium, [Ca^2+]i in cells expressing mGluR5 or another assay (IP3) that measures inositol phosphate turnover.
Cells expressing human mGluR5d as described in WO97/05252 cultured in a mixture of high glucose DMEM with Glutamax (31966-021)(500 mL), 10% dialyzed fetal bovine serum (Hyclone #SH30079.03)(56 mL), 200 μg/mL Hygromycin B (Invitrogen 45-0430, 50 mg/mL)(2.2 mL), 200 μg/mL Zeocin (Invitrogen #R250-01; 100 mg/l mL)(1.1 mL) are seeded at a density of 100,000 cells per well on collagen coated clear bottom 96-well plates with black sides and cells were allowed to adhere over night before experiments. All assays are done in a buffer containing 146 mM NaCl, 5 mM KCl, 1 mM MgCl2, 1 mM CaCl2, 20 mM HEPES, 1 mg/mL glucose and 1 mg/mL BSA Fraction IV (pH 7.4). Cell cultures in the 96-well plates are loaded for 60 minutes in the above mentioned buffer containing 6 μM of the acetoxymethyl ester form of the fluorescent calcium indicator fluo-3 (Molecular Probes, Eugene, Oreg.) in 0.025% pluronic acid (a proprietary, non-ionic surfactant polyol—CAS Number 9003-11-6). […] The fluorescence signal is sampled 50 times at 1-second intervals followed by 3 samples at 5-second intervals immediately after each of the two additions. Responses are measured as the difference between the peak heights of the response to agonist, less the background fluorescence within the sample period. […]

[2] = Determination of brain to plasma ratio in rat; format: in vivo; conditions: brain and plasma, female Sprague Dawley rats, read-out: Brain/Plasma Ratio of compound in Rat
Procedure: Brain to plasma ratios are estimated in female Sprague Dawley rats. The compound is dissolved in water or another appropriate vehicle. For determination of brain to plasma ratio the compound is administrated as a subcutaneous, or an intravenous bolus injection, or an intravenous infusion, or an oral administration. At a predetermined time point after the administration a blood sample is taken with cardiac puncture. The rat is terminated by cutting the heart open, and the brain is immediately retained. The blood samples are collected in heparinized tubes and centrifuged within 30 minutes, in order to separate the plasma from the blood cells. The plasma is transferred to 96-well plates and stored at −20° C. until analysis. The brains are divided in half, and each half is placed in a pre-tarred tube and stored at −20° C. until analysis. Prior to the analysis, the brain samples are thawed and 3 mL/g brain tissue of distilled water is added to the tubes. The brain samples are sonicated in an ice bath until the samples are homogenized. Both brain and plasma samples are precipitated with acetonitrile. After centrifugation, the supernatant is diluted with 0.2% formic acid. Analysis is performed on a short reversed-phase HPLC column with rapid gradient elution and MSMS detection using a triple quadrupole instrument with electrospray ionisation and Selected Reaction Monitoring (SRM) acquisition. Liquid-liquid extraction may be used as an alternative sample clean-up. The samples are extracted, by shaking, to an organic solvent after addition of a suitable buffer. An aliquot of the organic layer is transferred to a new vial and evaporated to dryness under a stream of nitrogen. After reconstitution of the residuals the samples are ready for injection onto the HPLC column.

T1 sequence (P41594 21-942 isoform P41594-3 limits assumed): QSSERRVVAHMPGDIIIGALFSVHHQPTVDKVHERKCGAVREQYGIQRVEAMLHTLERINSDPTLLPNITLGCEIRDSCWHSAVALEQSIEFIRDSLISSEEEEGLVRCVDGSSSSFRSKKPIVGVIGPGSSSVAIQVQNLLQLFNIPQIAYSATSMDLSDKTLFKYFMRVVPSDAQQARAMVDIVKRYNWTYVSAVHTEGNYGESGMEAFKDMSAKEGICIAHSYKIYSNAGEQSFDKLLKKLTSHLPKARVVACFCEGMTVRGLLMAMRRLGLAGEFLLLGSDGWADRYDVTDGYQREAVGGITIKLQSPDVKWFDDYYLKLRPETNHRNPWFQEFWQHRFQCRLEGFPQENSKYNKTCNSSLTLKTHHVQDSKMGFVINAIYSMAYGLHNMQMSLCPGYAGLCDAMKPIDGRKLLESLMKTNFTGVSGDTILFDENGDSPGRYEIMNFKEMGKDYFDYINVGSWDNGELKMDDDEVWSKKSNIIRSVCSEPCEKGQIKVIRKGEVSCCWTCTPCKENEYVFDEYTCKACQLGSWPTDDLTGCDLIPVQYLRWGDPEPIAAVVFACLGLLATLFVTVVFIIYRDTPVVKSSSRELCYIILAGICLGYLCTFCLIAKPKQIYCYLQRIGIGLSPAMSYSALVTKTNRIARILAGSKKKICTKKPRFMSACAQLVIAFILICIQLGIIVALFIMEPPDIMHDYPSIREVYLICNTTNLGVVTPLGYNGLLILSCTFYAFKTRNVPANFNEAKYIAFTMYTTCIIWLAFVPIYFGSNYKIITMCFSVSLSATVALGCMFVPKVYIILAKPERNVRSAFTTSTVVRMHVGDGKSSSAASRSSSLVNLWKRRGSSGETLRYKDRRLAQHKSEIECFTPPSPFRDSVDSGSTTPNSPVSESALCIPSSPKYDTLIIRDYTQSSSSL

IC50 [1] | Kp [2] | SMILES
37 nM | 0.26 | CN(C(=O)c1cc(-c2cccc(Cl)c2)on1)c1nnc(-c2ccncc2)n1C [Example 1, 5-(3-Chlorophenyl)-N-methyl-N-(4-methyl-5-pyridin-4-yl-4H-1,2,4-triazol-3-yl)isoxazole-3-carboxamide]
62 nM | 0.19 | CN(C(=O)c1cc(-c2cccc(Cl)c2)on1)c1nnc(-c2cn[nH]c(=O)c2)n1C [Example 3, 5-(3-Chlorophenyl)-N-methyl-N-[4-methyl-5-(6-oxo-1,6-dihydropyridazin-4-yl)-4H-1,2,4-triazol-3-yl]isoxazole-3-carboxamide]
567 nM | < 0.01 | Cc1cccc(-n2nnc(C(=O)N(C)c3nnc(-c4cn[nH]c(=O)c4)n3C)n2)c1 [Example 4, N-Methyl-N-[4-methyl-5-(6-oxo-1,6-dihydropyridazin-4-yl)-4H-1,2,4-triazol-3-yl]-2-(3-methylphenyl)-2H-tetrazole-5-carboxamide]
